# Assay results from US12448389B2, “BRM targeting compounds and associated methods of use” (Prelude Therapeutics Incorporated, priority 2020, dated 2025).
# Key:
# SMARCA2-HiBiT = molecular target: T1, SMARCA2-HiBiT (Homo sapiens, UniProt P51531); assay: SMARCA2 HiBiT degradation assay in HeLa cells; assay type: cell-based; details: 18 hours incubation; for DC50: read-out: HeLa_HiBit-SM2 DC50; for Dmax: HeLa, read-out: HeLa-HiBit-SM2 Dmax (%)
# T1 construct: SMARCA2-HiBiT knock-in Hela monoclonal cell (CS302366); host or cells: HeLa monoclonal knock-in line (CRISPR HiBiT knock-in at the endogenous locus, heterozygous)
# How it was run: (§1)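 HeLa monoclonal lines with heterozygous HiBiT knock-in were seeded at 2500 cells/well in EMEM with 10% FBS and treated with compound for 18 h at 37 °C. Remaining tagged protein was measured by Nano-Glo HiBiT lytic luminescence after 30–60 min at RT, and values came from curve fitting.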
# SMARCA4-HiBiT = molecular target: T2, SMARCA4-HiBiT (Homo sapiens, UniProt P51532); assay: SMARCA4 HiBiT degradation assay in HeLa cells; assay type: cell-based; details: 18 hours incubation; for DC50: read-out: HeLa-HiBit-SM4 DC50; for Dmax: HeLa, read-out: HeLa-HiBit-SM4 Dmax (%)
# T2 construct: SMARCA4-HiBiT knock-in Hela monoclonal cell (CS3023226); host or cells: HeLa monoclonal knock-in line (CRISPR HiBiT knock-in at the endogenous locus, heterozygous)
# How it was run: as §1
# T1 sequence (P51531 whole entry): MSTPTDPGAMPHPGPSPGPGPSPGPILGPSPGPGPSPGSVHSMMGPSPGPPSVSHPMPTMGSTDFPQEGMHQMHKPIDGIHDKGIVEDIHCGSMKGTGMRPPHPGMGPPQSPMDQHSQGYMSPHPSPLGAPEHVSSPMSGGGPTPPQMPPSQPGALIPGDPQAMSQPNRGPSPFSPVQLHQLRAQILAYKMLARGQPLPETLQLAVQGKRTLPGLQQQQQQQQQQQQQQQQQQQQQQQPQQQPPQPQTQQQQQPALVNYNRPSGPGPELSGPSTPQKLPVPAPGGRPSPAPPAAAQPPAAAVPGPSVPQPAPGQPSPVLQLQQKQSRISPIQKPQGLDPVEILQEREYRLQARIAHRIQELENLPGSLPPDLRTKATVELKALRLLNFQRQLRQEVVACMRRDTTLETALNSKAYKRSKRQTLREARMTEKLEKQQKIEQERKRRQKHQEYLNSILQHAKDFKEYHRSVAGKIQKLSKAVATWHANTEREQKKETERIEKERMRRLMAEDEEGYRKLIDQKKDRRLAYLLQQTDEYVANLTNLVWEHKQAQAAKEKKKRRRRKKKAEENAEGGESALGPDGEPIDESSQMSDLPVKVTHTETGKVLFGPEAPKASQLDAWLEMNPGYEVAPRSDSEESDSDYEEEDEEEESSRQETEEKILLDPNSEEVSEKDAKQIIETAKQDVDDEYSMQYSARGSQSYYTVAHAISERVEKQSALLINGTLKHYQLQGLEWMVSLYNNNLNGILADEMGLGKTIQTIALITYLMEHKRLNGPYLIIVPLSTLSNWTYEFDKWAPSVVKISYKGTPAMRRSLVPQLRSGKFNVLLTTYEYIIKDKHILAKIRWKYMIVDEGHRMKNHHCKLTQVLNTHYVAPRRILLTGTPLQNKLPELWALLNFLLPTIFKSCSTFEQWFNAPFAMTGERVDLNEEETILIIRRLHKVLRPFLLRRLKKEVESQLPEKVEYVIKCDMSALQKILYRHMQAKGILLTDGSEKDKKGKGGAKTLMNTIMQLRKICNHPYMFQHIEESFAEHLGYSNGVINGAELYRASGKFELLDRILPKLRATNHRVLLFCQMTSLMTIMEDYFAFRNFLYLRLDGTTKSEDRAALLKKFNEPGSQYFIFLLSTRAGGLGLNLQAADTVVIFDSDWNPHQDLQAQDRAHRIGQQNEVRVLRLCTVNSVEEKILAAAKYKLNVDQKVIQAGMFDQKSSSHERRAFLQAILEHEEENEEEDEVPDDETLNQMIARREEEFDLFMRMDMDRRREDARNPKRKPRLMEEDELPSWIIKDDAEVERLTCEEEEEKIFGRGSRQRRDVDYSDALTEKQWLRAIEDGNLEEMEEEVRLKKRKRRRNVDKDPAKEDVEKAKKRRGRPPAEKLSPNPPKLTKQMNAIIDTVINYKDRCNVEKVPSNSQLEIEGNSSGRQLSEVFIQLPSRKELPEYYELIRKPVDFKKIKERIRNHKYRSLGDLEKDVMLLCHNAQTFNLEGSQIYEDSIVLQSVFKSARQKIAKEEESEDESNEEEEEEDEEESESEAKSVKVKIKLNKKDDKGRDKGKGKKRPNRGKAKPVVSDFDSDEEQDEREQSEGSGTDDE
# T2 sequence (P51532 whole entry): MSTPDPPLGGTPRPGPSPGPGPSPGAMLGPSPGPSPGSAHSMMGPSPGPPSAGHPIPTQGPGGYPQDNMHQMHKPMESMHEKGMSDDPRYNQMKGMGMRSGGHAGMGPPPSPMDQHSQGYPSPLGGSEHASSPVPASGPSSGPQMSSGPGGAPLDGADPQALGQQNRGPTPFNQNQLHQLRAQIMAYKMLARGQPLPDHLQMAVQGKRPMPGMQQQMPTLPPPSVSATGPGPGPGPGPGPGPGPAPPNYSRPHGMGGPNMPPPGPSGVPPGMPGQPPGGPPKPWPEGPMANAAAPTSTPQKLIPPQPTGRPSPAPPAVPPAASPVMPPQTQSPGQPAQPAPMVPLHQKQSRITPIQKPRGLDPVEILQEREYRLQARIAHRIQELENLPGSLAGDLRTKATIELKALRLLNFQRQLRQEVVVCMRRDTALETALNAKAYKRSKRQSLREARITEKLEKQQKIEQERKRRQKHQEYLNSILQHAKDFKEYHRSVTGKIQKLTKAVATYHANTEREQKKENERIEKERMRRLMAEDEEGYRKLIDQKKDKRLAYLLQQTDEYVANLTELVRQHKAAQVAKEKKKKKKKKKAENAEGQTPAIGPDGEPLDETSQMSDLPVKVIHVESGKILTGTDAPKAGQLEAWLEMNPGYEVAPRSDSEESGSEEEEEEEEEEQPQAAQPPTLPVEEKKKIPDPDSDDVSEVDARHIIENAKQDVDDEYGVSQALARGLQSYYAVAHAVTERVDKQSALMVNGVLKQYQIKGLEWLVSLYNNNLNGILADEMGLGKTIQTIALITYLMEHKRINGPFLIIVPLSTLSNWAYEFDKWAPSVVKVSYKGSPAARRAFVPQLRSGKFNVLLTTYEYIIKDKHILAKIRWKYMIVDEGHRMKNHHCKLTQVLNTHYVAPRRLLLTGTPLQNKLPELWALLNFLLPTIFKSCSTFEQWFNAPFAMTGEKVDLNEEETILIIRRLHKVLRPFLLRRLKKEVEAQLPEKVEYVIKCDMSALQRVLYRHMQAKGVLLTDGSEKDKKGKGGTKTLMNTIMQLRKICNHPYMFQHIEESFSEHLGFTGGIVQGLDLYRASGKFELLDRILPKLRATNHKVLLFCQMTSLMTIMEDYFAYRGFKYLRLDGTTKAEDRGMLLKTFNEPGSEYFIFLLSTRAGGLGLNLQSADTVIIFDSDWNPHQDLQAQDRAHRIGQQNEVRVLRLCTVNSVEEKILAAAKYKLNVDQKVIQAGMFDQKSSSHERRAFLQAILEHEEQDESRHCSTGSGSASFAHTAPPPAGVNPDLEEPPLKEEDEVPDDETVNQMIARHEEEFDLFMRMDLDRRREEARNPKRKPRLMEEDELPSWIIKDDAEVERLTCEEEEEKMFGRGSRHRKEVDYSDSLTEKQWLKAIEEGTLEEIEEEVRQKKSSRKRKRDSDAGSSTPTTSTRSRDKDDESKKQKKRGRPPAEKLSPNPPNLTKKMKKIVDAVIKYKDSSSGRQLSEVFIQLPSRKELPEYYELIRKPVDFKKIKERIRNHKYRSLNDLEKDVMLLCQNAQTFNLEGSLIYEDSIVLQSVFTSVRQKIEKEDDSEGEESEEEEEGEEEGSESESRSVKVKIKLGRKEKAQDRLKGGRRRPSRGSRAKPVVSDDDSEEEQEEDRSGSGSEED
Compound,DC50 (SMARCA2-HiBiT) [nM],Dmax (SMARCA2-HiBiT) [%],DC50 (SMARCA4-HiBiT) [nM],Dmax (SMARCA4-HiBiT) [%],HeLa-HiBit-SM2 Dmax (%) (SMARCA2-HiBiT),HeLa-HiBit-SM4 Dmax (%) (SMARCA4-HiBiT)
"O=C1CCC(N2C(=O)c3cccc(N4CCC(CCCN5CCC6(CCC(N7CCN8c9cc(-c%10ccccc%10O)nnc9NC[C@H]8C7)CC6)CC5)CC4)c3C2=O)C(=O)N1 (stereo partly drawn) [Example 72, 2-(2,6-dioxopiperidin-3-yl)-4-(4-(3-(9-((S)-2-(2-hydroxyphenyl)-5,6,6a,7,9,10-hexahydro-8H-pyrazino[1′,2′:4,5]pyrazino[2,3-c]pyridazin-8-yl)-3-azaspiro[5.5]undecan-3-yl)propyl)piperidin-1-yl)isoindoline-1,3-dione]",< 10,75 to 85,< 10,50 to 75,–,–
"O=C1CCC(N2C(=O)c3ccc(N4CCC(N5CCN6c7cc(-c8ccccc8O)nnc7NC[C@H]6C5)C4)cc3C2=O)C(=O)N1 (stereo partly drawn) [Example 156, 2-(2,6-dioxopiperidin-3-yl)-5-(3-((S)-2-(2-hydroxyphenyl)-5,6,6a,7,9,10-hexahydro-8H-pyrazino[1′,2′:4,5]pyrazino[2,3-c]pyridazin-8-yl)pyrrolidin-1-yl)isoindoline-1,3-dione]",10 to 100,75 to 85,10 to 100,50 to 75,–,–
"O=C1CCC(N2C(=O)c3ccc(N4CCC(CN5CCC(CCCN6CCN7c8cc(-c9ccccc9O)nnc8NC[C@H]7C6)CC5)CC4)cc3C2=O)C(=O)N1 (stereo partly drawn) [Example 228, 2-(2,6-dioxopiperidin-3-yl)-5-(4-((4-(3-((S)-2-(2-hydroxyphenyl)-5,6,6a,7,9,10-hexahydro-8H-pyrazino[1′,2′:4,5]pyrazino[2,3-c]pyridazin-8-yl)propyl)piperidin-1-yl)methyl)piperidin-1-yl)isoindoline-1,3-dione]",< 10,> 85,< 10,> 85,–,–
"O=C1CCC(N2Cc3ccc(N4CCC(CN5CCN(C(=O)N6CCN7c8cc(-c9ccccc9O)nnc8NC[C@H]7C6)C(C(F)(F)F)C5)CC4)cc3C2=O)C(=O)N1 (stereo partly drawn) [Example 100, 3-(6-(4-((4-((S)-2-(2-hydroxyphenyl)-6,6a,7,8,9,10-hexahydro-5H-pyrazino[1′,2′:4,5]pyrazino[2,3-c]pyridazine-8-carbonyl)-3-(trifluoromethyl)piperazin-1-yl)methyl)piperidin-1-yl)-1-oxoisoindolin-2-yl)piperidine-2,6-dione]",< 10,75 to 85,10 to 100,75 to 85,–,–
"O=C1CCC(N2C(=O)c3ccc(N4[C@@H]5CC[C@H]4CC(CN4CCC(CN6CCN7c8cc(-c9ccccc9O)nnc8NC[C@H]7C6)CC4)C5)cc3C2=O)C(=O)N1 (stereo partly drawn) [Example 180, 2-(2,6-dioxopiperidin-3-yl)-5-[(1S,5R)-3-[[4-[[(10S)-4-(2-hydroxyphenyl)-1,5,6,8,12-pentazatricyclo[8.4.0.02,7]tetradeca-2,4,6-trien-12-yl]methyl]piperidin-1-yl]methyl]-8-azabicyclo[3.2.1]octan-8-yl]isoindole-1,3-dione]",< 10,75 to 85,< 10,75 to 85,–,–
"CC(C)(C)C(=O)OCN1C(=O)CCC(N2C(=O)c3cccc(N4CCC(N5CCC(N6CCN7c8cc(-c9ccccc9O)nnc8NC[C@H]7C6)CC5)CC4)c3C2=O)C1=O (stereo partly drawn) [Example 123, (3-(4-(4-((S)-2-(2-hydroxyphenyl)-5,6,6a,7,9,10-hexahydro-811-pyrazino [1′,2′:4,5]pyrazino[2,3-c]pyridazin-8-yl)-[1,4′-bipiperidin]-1′-yl)-1,3-dioxoisoindolin-2-yl)-2,6-dioxopiperidin-1-yl)methyl pivalate]",< 10,75 to 85,< 10,75 to 85,–,–
"CN(CCN1CCC(N2CCN3c4cc(-c5ccccc5O)nnc4NC[C@H]3C2)CC1)C1CCN(c2ccc3c(c2)C(=O)N(C2CCC(=O)NC2=O)C3=O)CC1 (stereo partly drawn) [Example 158, 2-(2,6-dioxopiperidin-3-yl)-5-(4-((2-(4-((S)-2-(2-hydroxyphenyl)-5,6,6a,7,9,10-hexahydro-8H-pyrazino[1′,2′:4,5]pyrazino[2,3-c]pyridazin-8-yl)piperidin-1-yl)ethyl)(methyl)amino)piperidin-1-yl)isoindoline-1,3-dione]",< 10,> 85,< 10,> 85,–,–
"O=C1CCC(N2C(=O)c3ccc(N4CC[C@H](CN5C[C@@H]6[C@H](C5)[C@H]6CN5CCN6c7cc(-c8ccccc8O)nnc7NC[C@H]6C5)[C@@H](F)C4)cc3C2=O)C(=O)N1 (stereo partly drawn) [Example 194, 2-(2,6-dioxopiperidin-3-yl)-5-[(3R,4R)-3-fluoro-4-[[(1S,5R)-6-[[(10S)-4-(2-hydroxyphenyl)-1,5,6,8,12-pentazatricyclo[8.4.0.02,7]tetradeca-2(7),3,5-trien-12-yl]methyl]-3-azabicyclo[3.1.0]hexan-3-yl]methyl]piperidin-1-yl]isoindole-1,3-dione]",< 10,–,< 10,–,A (A=Dmax>85%),B (B=75%<Dmax<=85%)
"CC1(CN2C[C@@H]3[C@@H](CN4CCN5c6cc(-c7ccccc7O)nnc6NC[C@H]5C4)[C@@H]3C2)CCN(c2ccc3c(c2)C(=O)N(C2CCC(=O)NC2=O)C3=O)CC1 (stereo partly drawn) [Example 91, 2-(2,6-dioxopiperidin-3-yl)-5-(4-(((1R,5S,6r)-6-(((S)-2-(2-hydroxyphenyl)-5,6,6a,7,9,10-hexahydro-8H-pyrazino[1′,2′:4,5]pyrazino[2,3-c]pyridazin-8-yl)methyl)-3-azabicyclo[3.1.0]hexan-3-yl)methyl)-4-methylpiperidin-1-yl)isoindoline-1,3-dione]",< 10,> 85,10 to 100,50 to 75,–,–
"O=C1CCC(N2C(=O)c3ccc(OC4CCN(CC5CCN(CCN6CCN7c8cc(-c9ccccc9O)nnc8NC[C@H]7C6)CC5)CC4)cc3C2=O)C(=O)N1 (stereo partly drawn) [Example 216, 2-(2,6-dioxopiperidin-3-yl)-5-((1-((1-(2-((S)-2-(2-hydroxyphenyl)-5,6,6a,7,9,10-hexahydro-8H-pyrazino[1′,2′:4,5]pyrazino[2,3-c]pyridazin-8-yl)ethyl)piperidin-4-yl)methyl)piperidin-4-yl)oxy) isoindoline-N, 3-dione]",< 10,> 85,< 10,50 to 75,–,–

# Second part, the compound after the results:
DC50 (SMARCA2-HiBiT) [nM],Dmax (SMARCA2-HiBiT) [%],DC50 (SMARCA4-HiBiT) [nM],Dmax (SMARCA4-HiBiT) [%],HeLa-HiBit-SM2 Dmax (%) (SMARCA2-HiBiT),HeLa-HiBit-SM4 Dmax (%) (SMARCA4-HiBiT),Compound
< 10,50 to 75,10 to 100,75 to 85,–,–,"CN1CCN(c2ccc3c(c2)C(=O)N(C2CCC(=O)NC2=O)C3=O)CC1CN1C[C@@H]2[C@H](C1)[C@H]2CN1CCN2c3cc(-c4ccccc4O)nnc3NC[C@H]2C1 (stereo partly drawn) [Example 56, 2-(2,6-dioxopiperidin-3-yl)-5-(3-(((1R,5S,6r)-6-(((S)-2-(2-hydroxyphenyl)-5,6,6a,7,9,10-hexahydro-8H-pyrazino[1′,2′:4,5]pyrazino[2,3-c]pyridazin-8-yl)methyl)-3-azabicyclo[3.1.0]hexan-3-yl)methyl)-4-methylpiperazin-1-yl)isoindoline-1,3-dione]"
< 10,75 to 85,< 10,50 to 75,–,–,"O=C1CCC(N2Cc3cc(C4CCN(C5CCN(CCCN6CCN7c8cc(-c9ccccc9O)nnc8NC[C@H]7C6)C5)CC4)ccc3C2=O)C(=O)N1 (stereo partly drawn) [Example 208, 3-(5-(1-(1-(3-((S)-2-(2-hydroxyphenyl)-5,6,6a,7,9,10-hexahydro-8H-pyrazino[1′,2′:4,5]pyrazino[2,3-c]pyridazin-8-yl)propyl)pyrrolidin-3-yl)piperidin-4-yl)-1-oxoisoindolin-2-yl)piperidine-2,6-dione]"
< 10,50 to 75,< 10,50 to 75,–,–,"C[C@@H]1CN(CC2CCN(c3ccc4c(c3)C(=O)N(C3CCC(=O)NC3=O)C4=O)CC2)CCN1C(=O)N1CCN2c3cc(-c4ccccc4O)nnc3NC[C@H]2C1 (stereo partly drawn) [Example 115, 2-(2,6-dioxopiperidin-3-yl)-5-(4-(((R)-4-((S)-2-(2-hydroxyphenyl)-6,6a,7,8,9,10-hexahydro-5H-pyrazino[1′,2′:4,5]pyrazino[2,3-c]pyridazine-8-carbonyl)-3-methyl-piperazin-1-yl)methyl)piperidin-1-yl)isoindoline-1,3-dione]"
< 10,≤ 50,< 10,≤ 50,–,–,"O=C1CCC(N2Cc3ccc(N4CCC(CN5Cc6cnc(N7CCN8c9cc(-c%10ccccc%10O)nnc9NC[C@H]8C7)nc6C5)CC4)cc3C2=O)C(=O)N1 (stereo partly drawn) [Example 61, 3-(6-(4-((2-((S)-2-(2-hydroxyphenyl)-5,6,6a,7,9,10-hexahydro-8H-pyrazino[1′,2′:4,5]pyrazino[2,3-c]pyridazin-8-yl)-5,7-dihydro-6H-pyrrolo[3,4-d]pyrimidin-6-yl)methyl)piperidin-1-yl)-1-oxoisoindolin-2-yl)piperidine-2,6-dione]"
< 10,75 to 85,< 10,75 to 85,–,–,"CC1CN(CC2CCN(c3cc4c(cc3F)C(=O)N(C3CCC(=O)NC3=O)C4=O)CC2)CCC1CN1CCN2c3cc(-c4ccccc4O)nnc3NC[C@H]2C1 (stereo partly drawn) [Example 165, 2-(2,6-dioxopiperidin-3-yl)-5-fluoro-6-[4-[[4-[[(10S)-4-(2-hydroxyphenyl)-1,5,6,8,12-pentazatricyclo[8.4.0.02,7]tetradeca-2,4,6-trien-12-yl]methyl]-3-methylpiperidin-1-yl]methyl]piperidin-1-yl] isoindole-1,3-dione]"
